Data reported in patent publication US20210087156A1, “PHARMACEUTICALLY ACCEPTABLE SALTS OF BENZODICYCLOALKANE DERIVATIVE, P[…] THEREOF, AND APPLICATION THEREOF” (priority 2018, published 2021).
In brackets after ≈: the same amount, converted by molar mass.

Tests used:
[1] = Stability test of free base, crystal form A and crystal form C (content and related substance); assay type: physicochemical
Method: The crystal form and purity change were measured respectively on 3rd and 7th day. The results are shown in Table 6, FIGS. 22, 23, 24 and 25. […]

[2] = Solubility test at room temperature; assay type: physicochemical
Method: The solubility of the crystal form A, the crystal form C and the free base in 0.1 M HCL, pH 4.5, or pH 6.8 buffer or water was tested at room temperature. In the test, the standard curves of the crystal form A, the crystal form C and the free base were plotted respectively. Subsequently, a appropriate amount of the crystal form A, the crystal form C and the free base was weighed respectively, to which was added a appropriate amount of solvent. The mixture was shaken at room temperature for 24 h, centrifuged. The supernatant was taken and the solubility was determined. The results are shown in Table 7, (the concentration unit is mg/mi).

[3] = target: T1, hERG potassium ion channel (Homo sapiens, UniProt Q12809); test: Inhibition of hERG potassium ion channel, manual whole-cell patch clamp in CHO hERG cells; assay type: cell-based
T1 construct: host or cells: CHO cells stably expressing hERG
Method: 2.1.1 Cells used in this experiment are CHO cell lines (supplied by Sophion Bioscience, Denmark) which are hERG cDNA transfectant and stably express hERG channels, cell progeny is P15. Cells are cultured in medium containing the following ingredients Invitrogen): Ham's F12 medium, 10% (v/v) inactivated fetal bovine serum, […] hygromycin B, […] Geneticin.
2.1.2 CHO hERG cells were grown in Petri dishes containing the above medium and cultured in an incubator containing 5% CO2 at 37° C. […]
In this experiment, whole-cell current recording was performed using a manual patch clamp system (HEKA EPC-10 signal amplification and digital conversion system, purchased from HEKA Electronic, Germany) The round glass slide of which surface CHO hERG cells were grown on was placed in an electrophysiological recording slot under an inverted microscope. […] The hERG potassium current recorded in the above steps should be superfused for test drug after the steady perfusion state of the extracellular fluid in the recording slot is stabilized until the inhibition of the hERG current by the drug reached a steady state. […]
The test data were analyzed by the data analysis software provided by HEKA Patchmaster (V2x73.2), Microsoft Excel and Graphpad Prism 5.0.

CYP3A4 = target: T2, CYP3A4 (Homo sapiens, UniProt P08684); test: Inhibition of CYP enzyme (CYP3A4, midazolam substrate, HLM); assay type: in vitro ADME
T2 construct: Add 200 μL of 0.2 mg/mL HLM to the assay wells; from tissue; host or cells: liver microsomes (HLM)
Method: 1. Preheat 0.1 M potassium phosphate buffer (K-buffer), pH 7.4:
100 mM K-Buffer: mix 9.5 mL Stock A into 40.5 mL Stock B, bring total volume to 500 mL with Milli-Q water, titrate the buffer with KOH or H3PO4 to pH 7.4.
Stock A (1 M monobasic potassium phosphate): 136.5 g of monobasic potassium phosphate in 1 L of Milli-Q water.
Stock B (1 M dibasic potassium phosphate): 174.2 g of dibasic potassium phosphate in 1 L of Milli-Q water.
2. Prepare serial dilution for test compounds and reference inhibitors (400×) in a 96-well plate:
2.1 Transfer 8 μL of 10 mM test compounds to 12 μL of ACN.
2.2 Prepare individual inhibitor spiking solution for reference: 8 μL of DMSO stock to 12 μL of ACN.
2.3 Prepare 1:3 serial dilutions in DMSO:ACN mixture (v/v: 40:60).
3. Prepare 4×NADPH cofactor (66.7 mg NADPH in 10 mL 0.1 M K-buffer, pH7.4).
4. Prepare 4×substrate (2 mL for each isoform) as indicated in the table below (add HLM where required on ice).
5. Prepare 0.2 mg/mL HLM solution (10 μL of 20 mg/mL to 990 μL of 0.1 M K-buffer) on ice.
6. Add 200 μL of 0.2 mg/mL HLM to the assay wells and then add 1 μL of test compounds or reference compounds into the designated wells on ice.
7. Add following solutions (in duplicate) in a 96-well assay plate on ice:
7.1 Add 30 μL of 2×test compounds and reference compound in 0.2 mg/mL HLM solution;
7.2 Add 15 μL of 4×substrate solution.
8. […]

[4] = Potency compared with the existing dezocine (statement, no method given)
[5] = Properties of crystal form I (DVS hygroscopicity, stability); assay type: physicochemical
Method: The Dynamic Vapor Sorption (DVS) curve was acquired on the DVS Intrinsic of Surface Measurement Systems.
About 10 mg of the free base of the compound of formula X prepared according to the method of Example 1 was weighed into a glass vial, and an appropriate amount of ethyl acetate was added to obtain a nearly saturated solution, which was fully dissolved by ultrasonication and filtered. 20-200 uL of corresponding solvent was added to the clear filtrate, which was stood and the solvent was slowly evaporated at room temperature. After the solvent was completely evaporated, the resulting solid was collected and subjected to an XRPD test.

[6] = 40° C./75% RH, 3 d, listed as From C
[7] = 40° C./75% RH, 7 d, listed as From C
[8] = 0.1M HCL, room temperature, shaken 24 h
[9] = H2O, room temperature, shaken 24 h
[10] = pH 4.5 buffer, room temperature, shaken 24 h
[11] = pH 6.8 buffer, room temperature, shaken 24 h
[12] = 5° C., 0 d (control), listed as From A
[13] = 40° C./75% RH, 3 d, listed as From A
[14] = 40° C./75% RH, 7 d, listed as From A

T1 sequence (Q12809 whole entry): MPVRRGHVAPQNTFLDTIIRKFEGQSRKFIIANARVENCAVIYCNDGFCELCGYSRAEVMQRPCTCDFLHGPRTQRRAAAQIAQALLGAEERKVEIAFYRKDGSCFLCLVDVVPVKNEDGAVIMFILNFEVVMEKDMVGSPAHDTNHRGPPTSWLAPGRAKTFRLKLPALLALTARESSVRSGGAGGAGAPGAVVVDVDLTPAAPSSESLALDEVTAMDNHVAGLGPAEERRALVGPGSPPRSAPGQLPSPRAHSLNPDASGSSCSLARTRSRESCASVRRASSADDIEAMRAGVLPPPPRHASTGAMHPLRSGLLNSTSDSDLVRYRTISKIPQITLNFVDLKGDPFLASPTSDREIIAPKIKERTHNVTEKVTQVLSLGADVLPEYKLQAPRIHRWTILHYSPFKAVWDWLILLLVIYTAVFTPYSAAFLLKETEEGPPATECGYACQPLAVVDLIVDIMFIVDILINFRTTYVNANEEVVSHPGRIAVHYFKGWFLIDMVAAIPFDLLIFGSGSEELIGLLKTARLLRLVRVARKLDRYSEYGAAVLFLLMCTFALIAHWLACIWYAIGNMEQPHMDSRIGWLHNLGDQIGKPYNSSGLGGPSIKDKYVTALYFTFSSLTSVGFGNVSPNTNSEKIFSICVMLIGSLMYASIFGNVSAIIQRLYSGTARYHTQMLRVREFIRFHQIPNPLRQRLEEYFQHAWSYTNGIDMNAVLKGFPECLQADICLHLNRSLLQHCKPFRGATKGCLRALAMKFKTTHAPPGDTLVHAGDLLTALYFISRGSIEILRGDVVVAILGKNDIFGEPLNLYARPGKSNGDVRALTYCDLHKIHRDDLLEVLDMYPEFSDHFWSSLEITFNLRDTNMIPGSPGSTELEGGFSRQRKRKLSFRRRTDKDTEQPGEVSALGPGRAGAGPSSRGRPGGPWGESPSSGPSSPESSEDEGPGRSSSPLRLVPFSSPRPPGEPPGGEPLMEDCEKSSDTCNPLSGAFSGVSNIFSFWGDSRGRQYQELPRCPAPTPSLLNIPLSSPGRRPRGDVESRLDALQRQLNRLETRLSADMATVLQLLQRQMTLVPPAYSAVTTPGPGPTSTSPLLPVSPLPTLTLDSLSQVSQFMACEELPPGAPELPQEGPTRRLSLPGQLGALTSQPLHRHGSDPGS
T2 sequence (P08684 whole entry): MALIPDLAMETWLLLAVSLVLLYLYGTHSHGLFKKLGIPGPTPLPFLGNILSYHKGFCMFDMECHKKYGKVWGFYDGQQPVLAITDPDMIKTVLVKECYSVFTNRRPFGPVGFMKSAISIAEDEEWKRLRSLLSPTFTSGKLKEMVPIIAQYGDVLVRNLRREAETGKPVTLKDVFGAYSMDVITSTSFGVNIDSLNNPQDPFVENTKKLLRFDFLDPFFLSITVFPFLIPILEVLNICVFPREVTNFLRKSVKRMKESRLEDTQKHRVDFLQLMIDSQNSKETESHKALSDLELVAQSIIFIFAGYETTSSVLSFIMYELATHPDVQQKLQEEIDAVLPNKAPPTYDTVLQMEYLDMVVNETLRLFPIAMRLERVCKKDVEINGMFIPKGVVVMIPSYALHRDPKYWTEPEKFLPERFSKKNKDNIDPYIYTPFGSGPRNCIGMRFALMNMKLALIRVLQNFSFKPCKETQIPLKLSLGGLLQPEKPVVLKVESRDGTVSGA

SMILES: C[C@@]12CCCCC[C@@H](Cc3ccc(OC(=O)NC4COC4)cc31)[C@@H]2N [Form C]
- character ([1]; 5° C., 0 d (control)): off-white solid
- Area (%) ([1]; 5° C., 0 d (control), listed as From C): 100.00%
- RRT(%) 0.70 (related substance) ([1]; 40° C./75% RH, 3 d): 3.60%
- RRT(%) 1.14 (related substance) ([1]; 40° C./75% RH, 3 d): 0.93%
- character ([1]; 40° C./75% RH, 3 d): off-white solid
- Area (%) [1, 6]: 94.92%
- RRT(%) 0.81 (related substance) [1, 6]: 0.54%
- Total impurity (%) [1, 6]: 5.08%
- RRT(%) 0.70 (related substance) ([1]; 40° C./75% RH, 7 d): 3.04%
- RRT(%) 1.14 (related substance) ([1]; 40° C./75% RH, 7 d): 0.92%
- character ([1]; 40° C./75% RH, 7 d): off-white solid
- Area (%) [1, 7]: 95.19%
- RRT(%) 0.81 (related substance) [1, 7]: 0.85%
- Total impurity (%) [1, 7]: 4.81%
- RRT(%) 0.70 (related substance) ([1]; 60° C., 3 d): 3.68%
- RRT(%) 1.14 (related substance) ([1]; 60° C., 3 d): 1.44%
- character ([1]; 60° C., 3 d): off-white solid
- Area (%) ([1]; 60° C., 3 d, listed as From C): 94.64%
- RRT(%) 0.81 (related substance) ([1]; 60° C., 3 d, listed as From C): 0.24%
- Total impurity (%) ([1]; 60° C., 3 d, listed as From C): 5.36%
- RRT(%) 0.70 (related substance) ([1]; 60° C., 7 d): 3.60%
- RRT(%) 1.14 (related substance) ([1]; 60° C., 7 d): 1.52%
- character ([1]; 60° C., 7 d): off-white solid
- Area (%) ([1]; 60° C., 7 d, listed as From C): 94.62%
- RRT(%) 0.81 (related substance) ([1]; 60° C., 7 d, listed as From C): 0.26%
- Total impurity (%) ([1]; 60° C., 7 d, listed as From C): 5.38%
- Final pH [2, 8]: 1.53
- phenomenon [2, 8]: clarified
- solubility [2, 8]: ≥33.87 mg/mL
- Final pH [2, 9]: 3.45
- phenomenon [2, 9]: clarified
- solubility [2, 9]: ≥26.05 mg/mL
- solubility compared to the free base (in words) ([2]; pH 4.5, pH 6.8, or 0.1 M HCL): increased significantly
- Final pH [2, 10]: 3.47
- phenomenon [2, 10]: clarified
- solubility [2, 10]: ≥25.50 mg/mL
- Final pH [2, 11]: 3.84
- phenomenon [2, 11]: clarified
- solubility [2, 11]: ≥26.11 mg/mL

SMILES: C[C@@]12CCCCC[C@@H](Cc3ccc(OC(=O)NC4COC4)cc31)[C@@H]2N [free base of Compound X]
- RRT(%) 0.76 (related substance) ([1]; 5° C., 0 d): 1.19%
- RRT(%) 1.29 (related substance) ([1]; 5° C., 0 d): 3.35%
- RRT(%) 1.53 (related substance) ([1]; 5° C., 0 d): 0.18%
- RRT(%) 1.59 (related substance) ([1]; 5° C., 0 d): 0.97%
- RRT(%) 1.75 (related substance) ([1]; 5° C., 0 d): 0.43%
- Area (%) ([1]; 5° C., 0 d (control)): 93.88%
- Total impurity (%) ([1]; 5° C., 0 d (control)): 6.12%
- character ([1]; 5° C., 0 d (control)): off-white solid
- Final pH [2, 8]: 1.30
- phenomenon [2, 8]: Flocculent
- solubility [2, 8]: 18.86 mg/mL (≈ 54.8 mM)
- Final pH [2, 9]: 8.61
- phenomenon [2, 9]: turbid
- solubility [2, 9]: 0.05 mg/mL (≈ 0.145 mM)
- Final pH [2, 10]: 6.41
- phenomenon [2, 10]: turbid
- solubility [2, 10]: 3.75 mg/mL (≈ 10.9 mM)
- Final pH [2, 11]: 6.78
- phenomenon [2, 11]: turbid
- solubility [2, 11]: 2.03 mg/mL (≈ 5.89 mM)
- inhibitory activity on the hERG potassium ion channel (in words) ([3]; 10 μM): little inhibitory activity
- inhibition at 10 μM ([3]; human, CHO cells stably expressing hERG channels, CHO hERG cells, patch clamp, ~25° C.): 20.6%
- inhibitory activity on CYP3A4 (in words) (CYP3A4; 1 μM): little inhibitory activity
- inhibition at 5 min, 1 μM (CYP3A4; human, human liver microsomes, pH 7.4, probe midazolam, substrate midazolam (M), 0.1 mg/mL HLM, read-out: CYP3A4(M) inhibition rate/1 μM): 23.8%
- potency compared with the existing dezocine [4]: increased more than three-fold

SMILES: C[C@@]12CCCCC[C@@H](Cc3ccc(OC(=O)NC4COC4)cc31)[C@@H]2N [Form I]
- stability (in words) [5]: good stability
- hygroscopicity (DVS curve) ([5]; DVS, 25° C., 0% RH~95% RH): almost has no hygroscopicity

SMILES: C[C@@]12CCCCC[C@@H](Cc3ccc(OC(=O)NC4COC4)cc31)[C@@H]2N [Form A]
- character ([1]; 5° C., 0 d (control)): off-white solid
- Area (%) [1, 12]: 99.82%
- Total impurity (%) [1, 12]: 0.18%
- RRT(%) 1.25 (related substance) ([1]; 5° C., 0 d, — = below detection limit): 0.18%
- RRT(%) 1.25 (related substance) ([1]; 40° C./75% RH, 3 d): 0.14%
- character ([1]; 40° C./75% RH, 3 d): off-white solid
- Area (%) [1, 13]: 99.47%
- RRT(%) 0.81 (related substance) [1, 13]: 0.39%
- Total impurity (%) [1, 13]: 0.53%
- RRT(%) 1.25 (related substance) ([1]; 40° C./75% RH, 7 d): 0.17%
- character ([1]; 40° C./75% RH, 7 d): off-white solid
- Area (%) [1, 14]: 99.28%
- RRT(%) 0.81 (related substance) [1, 14]: 0.54%
- Total impurity (%) [1, 14]: 0.72%
- RRT(%) 1.25 (related substance) ([1]; 60° C., 3 d): 0.20%
- character ([1]; 60° C., 3 d): off-white solid
- Area (%) ([1]; 60° C., 3 d, listed as From A): 99.68%
- RRT(%) 0.81 (related substance) ([1]; 60° C., 3 d, listed as From A): 0.12%
- Total impurity (%) ([1]; 60° C., 3 d, listed as From A): 0.32%
- RRT(%) 1.25 (related substance) ([1]; 60° C., 7 d): 0.30%
- character ([1]; 60° C., 7 d): off-white solid
- Area (%) ([1]; 60° C., 7 d, listed as From A): 99.58%
- RRT(%) 0.81 (related substance) ([1]; 60° C., 7 d, listed as From A): 0.11%
- Total impurity (%) ([1]; 60° C., 7 d, listed as From A): 0.42%
- Final pH [2, 8]: 0.91
- phenomenon [2, 8]: Flocculent
- solubility at 24 h ([2]; 0.1 M HCl, simulated gastric fluid, thermodynamic from solid, room temperature, shaken 24 h): 17.8 mg/mL (≈ 51.8 mM)
- Final pH [2, 9]: 3.86
- phenomenon [2, 9]: Flocculent
- solubility [2, 9]: 8.25 mg/mL (≈ 24 mM)
- Final pH [2, 10]: 3.92
- phenomenon [2, 10]: clarified
- solubility [2, 10]: ≥8.36 mg/mL
- Final pH [2, 11]: 5.86
- phenomenon [2, 11]: clarified
- solubility [2, 11]: ≥11.03 mg/mL
